This note sets out measurements from patent publication US20170157013A1, “Metal Amino Acid Complexes for Bacterial Aggregation” (Colgate-Palmolive Company, priority 2015, published 2017).

The test system of data set [1] is oral bacteria in stimulated whole saliva. As to the kind of experiment: Aggregation of oral bacteria in stimulated whole saliva, culture dish wells. It counts as cell-based, human. The note with it: 15 minutes at room temperature. As for the experimental part:
Stimulated whole saliva from a human volunteer was harvested and mixed either with an untreated control (water), metal salt solutions (0.2% zinc oxide or 0.1% zinc oxide/0.05% zinc citrate mixture), amino acid solutions (0.3% arginine, 1% arginine, or 0.94% lysine), or metal-amino acid complex solutions (1.2% zinc-lysine complex, 1.33% zinc-arginine complex, or 1% copper-lysine complex) as described in the present disclosure. The solutions were incubated for 15 minutes at room temperature in culture dish wells, then photographs were taken.

The subject of data set [2] is Streptococcus oralis. As to the kind of experiment: Quantitative bacterial aggregation by absorbance at 610 nm, S. oralis. The format is cell-based. The note with it: for OD610: 0.9% NaCl; for change in OD (610 nm) over the course of the experiment / time by which significant drop in absorbance has occurred / time of peak of absorbance: S. oralis; for change in OD (610 nm) over the course of the experiment: about one hour. As for the experimental part:
To evaluate the aggregation quantitatively, Streptococcus oralis bacteria was suspended in sterile 0.9% NaCl medium in capped culture tubes. To each tube, a different test sample was added, and the absorbance of the medium at […] was monitored over a period of about one hour. Bacteria of this size will remain suspended in solution for several hours before settling out under gravity. This gives such a solution a uniform haziness or opacity that can be quantified by measuring the absorbance of the solution at 610 nm. The aggregation of bacteria results in clumps of bacterial matter, which initially raises absorbance, followed by a sharp drop in absorbance as the bacterial matter settles out, leaving an increasingly transparent solution. Therefore, a decrease in absorbance signals the formation of bacterial aggregates.

Data set [3] deals with A. viscous bacteria. As to the kind of experiment: Quantitative bacterial aggregation by absorbance at 610 nm, A. viscous. It counts as cell-based. The settings on record: for final test result, absorbance at 610 nm: A. viscous, end of experiment.
Data set [4] is described as follows: Stability of ZLC in solution (low-pH preparation). The settings on record: final reaction mixture, clear, slightly acidic pH (<pH 7). It counts as physicochemical. As for the experimental part: In an alternative method, lysine HCl (2 molar equivalents) is dissolved in deionized water with stirring at room temperature. Concentrated hydrochloric acid equal to approximately 0.5 molar equivalent is added to the reaction mixture. ZnO (1 molar equivalent) is then added to the reaction mixture, and the mixture is stirred until complete dissolution occurs, typically within a minutes to a few hours. The pH of the reaction is kept at 6 or below. The ZLC complex can be kept in solution in the final reaction mixture, which is clear, for more than 3 months at slightly acidic pH (i.e., <pH 7) without precipitation of ZnO. Alternatively, the reaction mixture can be spray dried to yield ZLC powder, or the reaction mixture can be adjusted to a near-neutral pH (e.g., 6.8), and the crystalline salt of ZLC can be isolated upon slow evaporation of the concentrated ZLC reaction mixture.

The mark [5] stands for this setting: 0.2% zinc oxide, 0.1% zinc oxide/0.05% zinc citrate, 0.3% arginine, 0.94% lysine, 1.2% zinc-lysine, 1.33% zinc-arginine, 1% copper-lysine.
The mark [6] stands for this setting: 1 minute, 1.5% arginine, 0.94% lysine, 0.35% ZnCl2, 1.2% Zn-Lys, 1.33% Zn-Arg.
[7] abbreviates: 9 minutes, 1.5% arginine, 0.94% lysine, 0.35% ZnCl2, 1.2% Zn-Lys, 1.33% Zn-Arg.
Where [8] appears, read: 21 minutes, 1.5% arginine, 0.94% lysine, 0.35% ZnCl2, 1.2% Zn-Lys, 1.33% Zn-Arg.
Where [9] appears, read: 28 minutes, 1.5% arginine, 0.94% lysine, 0.35% ZnCl2, 1.2% Zn-Lys, 1.33% Zn-Arg.
[10] abbreviates: 40 minutes, 1.5% arginine, 0.94% lysine, 0.35% ZnCl2, 1.2% Zn-Lys, 1.33% Zn-Arg.
The mark [11] stands for this setting: 55 minutes, 1.5% arginine, 0.94% lysine, 0.35% ZnCl2, 1.2% Zn-Lys, 1.33% Zn-Arg.
The mark [12] stands for this setting: 1.5% arginine, 0.94% lysine, 0.35% zinc chloride, 1.2% zinc-lysine complex, 1.33% zinc-arginine complex.
Setting [13] is: 1 minute, 1.5% arginine, 0.94% lysine, 0.35% ZnCl2, 1.2% Zn-Lysine, 1.33% Zn-Arg.
The mark [14] stands for this setting: 14 minutes, 1.5% arginine, 0.94% lysine, 0.35% ZnCl2, 1.2% Zn-Lysine, 1.33% Zn-Arg.
Where [15] appears, read: 27 minutes, 1.5% arginine, 0.94% lysine, 0.35% ZnCl2, 1.2% Zn-Lysine, 1.33% Zn-Arg.
[16] abbreviates: 46 minutes, 1.5% arginine, 0.94% lysine, 0.35% ZnCl2, 1.2% Zn-Lysine, 1.33% Zn-Arg.
The mark [17] stands for this setting: 66 minutes, 1.5% arginine, 0.94% lysine, 0.35% ZnCl2, 1.2% Zn-Lysine, 1.33% Zn-Arg.
Setting [18] is: 1.2% zinc-lysine complex, 1.33% zinc-arginine complex.

Turning to copper-lysine complex, the “observation of aggregate formation in saliva” value (shortened to “observation”) in data set [1] (setting [5]) was “Large aggregates of material slowly formed and settled to the bottom of the dishes”.

As to `N=C(N)NCCC[C@H](N)C(=O)O` [Arginine, arginine], the “observation” value in data set [1] (setting [5]) and in data set [1] (1% arginine) was “no change was observed compared to the negative control” each time. In addition, the OD610 amounted to 0.492 in data set [2] (setting [6]); 0.496 in data set [2] (1 minute, 5% arginine); 0.473 in data set [2] (setting [7]); 0.468 in data set [2] (9 minutes, 5% arginine); 0.455 in data set [2] (setting [8]); 0.450 in data set [2] (21 minutes, 5% arginine). Also, the OD610 in data set [2] (setting [9]) was 0.449; in data set [2] (28 minutes, 5% arginine) it was 0.446; in data set [2] (setting [10]), 0.441; in data set [2] (40 minutes, 5% arginine), 0.440; in data set [2] (setting [11]), 0.428; in data set [2] (55 minutes, 5% arginine), 0.435. Further, the OD610 came out at 0.438 in data set [3] (setting [13]); 0.341 in data set [3] (1 minute, 5% arginine); 0.432 in data set [3] (setting [14]); 0.334 in data set [3] (14 minutes, 5% arginine); 0.427 in data set [3] (setting [15]); 0.335 in data set [3] (27 minutes, 5% arginine). Moreover, the OD610 in data set [3] (setting [16]) is 0.418; in data set [3] (46 minutes, 5% arginine) it was 0.333; in data set [3] (setting [17]), 0.424; in data set [3] (66 minutes, 5% arginine), 0.333. The “change in OD (610 nm) over the course of the experiment” value (“change in OD (610 nm) over the course” for short) in data set [2] (setting [12]) and in data set [2] (5% arginine) was “no appreciable change in OD (610 nm) or a rise in OD (610 nm)” throughout.

On to `Cl.Cl.NCCCCC(N)C(=O)[O-].NCCCCC(N)C(=O)[O-].O.O.[Zn+2]` (centres unmarked) [ZLC, zinc-lysine-chloride complex], for which, in data set [1] (setting [5]), the “observation” value was “Large aggregates of material slowly formed and settled to the bottom of the dishes”. The OD610 is reported as 0.549 in data set [2] (setting [6]); 0.551 in data set [2] (setting [7]); 0.574 in data set [2] (setting [8]); 0.515 in data set [2] (setting [9]); 0.357 in data set [2] (setting [10]); 0.182 in data set [2] (setting [11]). For the same compound, the OD610 in data set [3] (setting [13]) worked out at 0.454; in data set [3] (setting [14]) it was 0.554; in data set [3] (setting [15]) it was 0.175; in data set [3] (setting [16]), 0.032; in data set [3] (setting [17]), 0.014. In addition, the “change in OD (610 nm) over the course” value in data set [2] (setting [12]) was “peak of absorbance at about 21 minutes, followed by a significant drop”. Moreover, in data set [2] (setting [18]), the “time by which significant drop in absorbance has occurred” value was “about 55 minutes”. In addition, the “time of peak of absorbance” value in data set [2] (setting [18]) was “about 21 minutes”. Also, the “final test result, absorbance at 610 nm” value in data set [3] is listed as “nearly zero absorbance”. For the same compound, the “time kept in solution without precipitation of ZnO” value in data set [4] is “more than 3 months”.

Consider `NCCCC[C@H](N)C(=O)O` [Lysine, lysine], for which the “observation” value in data set [1] (setting [5]) was “no change was observed compared to the negative control”. In addition, the OD610 is 0.537 in data set [2] (setting [6]); 0.547 in data set [2] (setting [7]); 0.552 in data set [2] (setting [8]); 0.553 in data set [2] (setting [9]); 0.555 in data set [2] (setting [10]); 0.555 in data set [2] (setting [11]). For the same compound, the OD610 in data set [3] (setting [13]) is reported as 0.416; in data set [3] (setting [14]), 0.413; in data set [3] (setting [15]) it was 0.411; in data set [3] (setting [16]) it was 0.410; in data set [3] (setting [17]) it was 0.409. In addition, the “change in OD (610 nm) over the course” value in data set [2] (setting [12]) is listed as “no appreciable change in OD (610 nm) or a rise in OD (610 nm)”.

As to `[O]=[Zn]` [zinc oxide], the “observation” value in data set [1] (setting [5]) is “only undissolved and/or precipitated metal salt”.

As to zinc-arginine complex [Zn-Arg], the “observation” value in data set [1] (setting [5]) was “Large aggregates of material slowly formed and settled to the bottom of the dishes”. Also, the OD610 in data set [2] (setting [6]) was determined as 0.563; in data set [2] (setting [7]) it was 0.568; in data set [2] (setting [8]), 0.575; in data set [2] (setting [9]), 0.620; in data set [2] (setting [10]), 0.616; in data set [2] (setting [11]), 0.361. Moreover, the OD610 in data set [3] (setting [13]) is 0.436; in data set [3] (setting [14]) it was 0.474; in data set [3] (setting [15]), 0.623; in data set [3] (setting [16]), 0.369; in data set [3] (setting [17]), 0.025. In addition, the “change in OD (610 nm) over the course” value in data set [2] (setting [12]) was “brief rise in absorbance which peaks at about 28 minutes, followed by a significant drop in absorbance”. For the same compound, in data set [2] (setting [18]), the “time by which significant drop in absorbance has occurred” value is “about 55 minutes”. Moreover, the “time of peak of absorbance” value in data set [2] (setting [18]) is listed as “about 28 minutes”. In data set [3], the “final test result, absorbance at 610 nm” value is given as “nearly zero absorbance”.

Consider `[Cl-].[Cl-].[Zn+2]` [ZnCl2, zinc chloride], for which the OD610 in data set [2] (setting [6]) was 0.572; in data set [2] (setting [7]), 0.584; in data set [2] (setting [8]), 0.615; in data set [2] (setting [9]), 0.680; in data set [2] (setting [10]), 0.652; in data set [2] (setting [11]), 0.397. For the same compound, the OD610 came out at 0.315 in data set [3] (setting [13]); 0.315 in data set [3] (setting [14]); 0.316 in data set [3] (setting [15]); 0.391 in data set [3] (setting [16]); 0.255 in data set [3] (setting [17]). For the same compound, the “change in OD (610 nm) over the course” value in data set [2] (setting [12]) is “no appreciable change in OD (610 nm) or a rise in OD (610 nm)”.
